Data set [1] can be described thus: Test 4: Inhibition of cellular release of amyloid peptide 1-40. To be noted: Cricetulus griseus; CHO cells transfected with APP gene; 24 hours with test compound; amyloid peptide 1-40 in supernatant by sandwich ELISA. Type of data set: cell-based, Chinese hamster. From the text: Test 4: Inhibition of Cellular Release of Amyloid Peptide 1-40
Background: An ELISA detects its analyte on a solid surface through an enzyme-linked reagent.

One may read the IC50 as the concentration that gives 50% inhibition. Compound `CO[C@@H](C)COCc1cccc(C[C@@H]2CS(=O)(=O)C[C@H](NCc3cccc(C(C)C)c3)[C@H]2O)c1` [Example 26, (3R,4S,5S)-3-(3-Isopropyl-benzylamino)-5-[3-((S)-2-methoxy-propoxy-methyl)-benzyl]-1,1-dioxo-hexahydro-1lambda*6*-thiopyran-4-ol] gave an IC50 in data set [1] of 4.7 µM.
One may read the melting point as the temperature of the solid-liquid transition. Compound `COc1ccc(C[C@@H]2CS(=O)(=O)C[C@H](NCc3cccc(C(C)C)c3)[C@H]2O)cc1Br.Cl` came in with a melting point of 173 to 175 °C.
Same read-out and setting: next, `CC(C)c1cccc(CN[C@H]2CS(=O)(=O)C[C@@H](Cc3ccc(Nc4ccncn4)cc3)[C@@H]2O)c1` [Example 44, (3R,4S,5S)-3-(3-Isopropyl-benzylamino)-1,1-dioxo-5-[4-(pyrimidin-4-ylamino)-benzyl]-hexahydro-1lambda*6*-thiopyran-4-ol]: 136 to 139 °C; `CC(C)c1cccc(CN[C@H]2CS(=O)(=O)C[C@@H](Cc3ccccc3)[C@@H]2O)c1.Cl` (hydrate or solvate): 239 to 242 °C.

The values above are taken from patent US20090099207A1, “Cyclic sulfones useful as BACE inhibitors” (priority 2006, published 2009).
